# Measurements reported in patent EP1643252B1 (priority 2004, dated 2009).
# Tests used:
# [1] = tested on: PrP^Sc; conditions: brain homogenate of prion disease infected animal and human; biotinylated peptide on streptavidin magnetic beads
# [2] = tested on: cellular prion protein; conditions: from individual with no prion disease
Sequence,ability to capture PrP^Sc from brain homogenate [1],capture of cellular prion protein [2]
AQKKDGKKRKRSRKESYSIYV [peptide-7],capture PrP^Sc,do not capture cellular prion protein
NWCKRGRKNCKTH [peptide-2],capture PrP^Sc,do not capture cellular prion protein
NYKKPKLG [peptide-3],capture PrP^Sc,do not capture cellular prion protein
WQPPRARI [peptide-1],capture PrP^Sc,do not capture cellular prion protein
YRGRYGYKGKYGYRG [peptide-6],capture PrP^Sc,do not capture cellular prion protein
YRGYRGYRGYRG [peptide-5],capture PrP^Sc,do not capture cellular prion protein
